Source: US7767648B2, “Tissue specific prodrugs” (priority 2000, dated 2010)

Columns and labels:
prostate cancer cells = experiment: Induction of apoptotic death of prostate cancer cells; assay type: cell-based; conditions: cell-proliferation independent
Description: The TG analog was synthesized by coupling the primary amine of 12ADT to the γ-carboxyl of glutamate, leaving the α-carboxyl of glutamate free to link to other amino acids, as shown in FIG. 2. The 12-ADT*Glu is a potent, cell-proliferation independent inducer of the apoptotic death of prostate cancer cells (LD50 is approximately 50 nM). The corresponding analog consisting of 12-ADT linked to the α-carboxyl of glutamate (that is, 12ADT-Glu) is also a suitable analog, as shown in FIG. 2. The prodrug containing 12ADT*Glu coupled to the longer amino acid chain (that is, 12ADT*Glu-Glu*Glu*Asp-Glu) can also be a suitable substrate. The 12ADT-Glu*Glu*Glu*Asp-Glu prodrug may also be cleaved by PSMA, which may cleave the last peptide bond in the absence of a free α-carboxyl. […] This analog can then be linked via either the α- or γ-carboxyl to a peptide chain.

[1] = Cytotoxic activity of thapsigargin and its debutanoyl derivative; assay type: cell-based; conditions: cell line not stated
Description: The starting material for all the synthesized analogs is 8-O-debutanoylthapsigargin, which is easily available by triethylamine catalyzed methanolysis of thapsigargin. Removal of the butanoyl results in loss of cytotoxic activity with an LD50 of >50 μM compared to <100 nM for thapsigargin. Anhydrides of dicarboxylic acids of various lengths afforded analogs in which the acyl group attached to the O-8 ended in a free carboxylic acid. A dicyclohexylcarbodiimide (DCCI) promoted coupling of a 2,4-diaminoarene to the carboxylic acid analogs affords the derivatives in which contain a primary aromatic amine as a potential coupling point for additional moeities.

[2] = test system: TSU prostate cancer cell line; experiment: Killing of non-PSMA producing TSU prostate cancer cell line; assay type: cell-based, human
Description: The prodrugs are hydrolyzed by PSMA and release the corresponding Asp- or Glu-containing TG analogs or the TG analog itself, and also lack potent cytotoxicity when not metabolized by PSMA. Non-PSMA producing TSU-Pr1 human prostate cancer cell line is exposed to each of the prodrugs at doses that are approximately 50-times the LD50 for the corresponding free TG analog. Against the TSU prostate cancer cell line, 12ADT-Glu has an LD50 value for killing of ˜50 nM.

PSMA = PSMA (Homo sapiens, UniProt Q04609); experiment: Hydrolysis of methotrexate analog substrates by purified PSMA (HPLC); assay type: biochemical; conditions: for % PSMA hydrolysis 24 h / % PSMA hydrolysis 48 h: Table 3, hydrolysis of substrate to APA-Asp or APA-Glu by purified PSMA; for hydrolysis by PSMA (in words): text summary of the tables
Description: The extent to which various peptide substrates are hydrolyzed by PSMA was determined by synthesizing a series of methotrexate analogs including the 4-N[N-2,4-diamino-6-pteridinyl-methyl)-N-methylamino-benzoate] (APA) portion of methotrexate coupled to a variety of peptides. Poly-glutamated methotrexate is available from Schirks Laboratories in Jona, Switzerland.
A series of α-linked peptides were investigated for PSMA hydrolysis. […] In Tables 1-3, to simplify identification of the type of amino acid linkages employed, α-linkages are denoted by a hyphen (for example, Glu-Glu) and all side-chain linkages are denoted by a star (for example, Glu*Glu).
Substrate specificity for the pteroyl poly-γ-glutamyl carboxypeptidase (folate hydrolase) activity of PSMA was determined by synthesizing a series of γ-linked methotrexate analogs and assaying them for hydrolysis by PSMA.
(§1) In Tables 1-3, to simplify identification of the type of amino acid linkages employed, α-linkages are denoted by a hyphen (for example, Glu-Glu) and all side-chain linkages are denoted by a star (for example, Glu*Glu). The column labeled “% PSMA Hydrolysis” refers to the percentage of hydrolysis of a substrate to APA-Asp or to APS-Glu by purified PSMA. The column labeled “% APA-Asp or -Glu” refers to the percentage of hydrolysis of substrate to APA-Asp or APA-Glu. The column labeled “% Prodrug Remaining” refers to the area of the HPLC peak attributable to starting material divided by the areas of HPLC peaks attributable to starting material, intermediate products, and final products. […] “ND” means “not determined,” in that the experiment was not performed.

[3] = Stability of PSMA substrates in human plasma, 18 hour incubation, HPLC; assay type: in vitro ADME; conditions: 18 hour incubation in human plasma; for remaining at 18 h: HPLC peak area of starting material over all peaks, read-out: % Prodrug Remaining; for % APA-Glu or -Asp: hydrolysis of substrate to APA-Asp or APA-Glu
Excerpt: (§2) In order that the prodrugs can be administered systemically via the blood, their stability in sera must be sufficiently high to avoid hydrolysis or other degradative processes which may occur prior to the prodrugs reaching their target tissues. In addition to GGH activity, a human blood plasma glutamate carboxypeptidase (PGCP) that has significant sequence homology to PSMA and glutamate carboxypeptidase activity has been identified. Therefore, to assay hydrolysis by GGH and other serum carboxypeptidases like PGCP, the APA-Glu*Glu*Glu*Glu*Asp, APA-Glu*Glu*Glu*Glu*Gln, and APA-Glu*Glu*Glu*Glu*Glu substrates were incubated in human and mouse plasma and hydrolysis determined by HPLC analysis after an 18-hour incubation, as shown in Table 3. As noted, GGH efficiently hydrolyzes poly-γ-glutamate chains as well as poly-γ-glutamated folate and methotrexate. GGH, however, is unable to hydrolyze α-linked peptides.
as §1

[4] = Stability of PSMA substrates in mouse plasma, 18 hour incubation, HPLC; assay type: in vitro ADME; conditions: 18 hour incubation in mouse plasma
Excerpt: as §2, §1

TSU cancer cell line = experiment: Inhibition of clonogenic survival of TSU cells in presence or absence of exogenous PSMA; assay type: cell-based; conditions: exogenous PSMA 10 micrograms/mL, FIG. 4
Description: FIG. 4 is a graph of the percentage inhibition of clonogenic survival of TSU cells exposed to various concentrations of APA-Glu*Glu*Glu*Glu*Asp in the presence or absence of PSMA.
The methotrexate analog sequence APA-Glu*Glu*Glu*Glu*Asp was contacted with the non-PSMA producing TSU cancer cell line in various amounts. Exogenous PSMA (10 micrograms/mL) was added to the media and the percent inhibition of clonogenic survival was monitored.

Chain of PSMA (Q04609 whole entry): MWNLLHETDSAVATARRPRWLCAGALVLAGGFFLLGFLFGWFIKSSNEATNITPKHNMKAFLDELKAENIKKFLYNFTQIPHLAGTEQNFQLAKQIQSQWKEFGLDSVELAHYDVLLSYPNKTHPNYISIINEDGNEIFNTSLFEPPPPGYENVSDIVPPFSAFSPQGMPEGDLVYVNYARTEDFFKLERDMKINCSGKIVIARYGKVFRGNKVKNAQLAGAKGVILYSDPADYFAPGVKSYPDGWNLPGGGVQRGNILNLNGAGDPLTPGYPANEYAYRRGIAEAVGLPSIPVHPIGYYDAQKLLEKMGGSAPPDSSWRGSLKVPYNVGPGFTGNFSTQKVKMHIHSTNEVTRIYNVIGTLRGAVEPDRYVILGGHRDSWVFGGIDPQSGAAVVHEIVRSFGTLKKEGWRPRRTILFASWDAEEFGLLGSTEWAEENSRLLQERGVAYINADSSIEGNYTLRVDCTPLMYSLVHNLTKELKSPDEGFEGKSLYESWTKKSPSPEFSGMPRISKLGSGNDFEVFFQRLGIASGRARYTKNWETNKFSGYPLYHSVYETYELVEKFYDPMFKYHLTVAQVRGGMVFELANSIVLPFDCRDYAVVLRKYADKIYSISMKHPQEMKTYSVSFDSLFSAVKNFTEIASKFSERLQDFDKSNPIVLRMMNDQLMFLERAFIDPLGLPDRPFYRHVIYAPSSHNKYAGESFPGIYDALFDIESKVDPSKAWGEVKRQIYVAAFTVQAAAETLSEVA

Q: Which “LD50 (apoptotic death of prostate cancer cells)” value (prostate cancer cells) does the source give for “N-L-γ-glutamyl-12-aminododecanoyl-8-0-debutanoyl Thapsigargin [12-ADT*Glu]” here?
A: approximately 50 nM

Q: With `C/C=C(/C)C(=O)O[C@H]1C(C)=C2[C@H]([C@@H]1OC(=O)CCCCCCC)[C@@](C)(OC(C)=O)C[C@H](OC(=O)CCC)[C@@]1(O)[C@H]2OC(=O)[C@@]1(C)O` [thapsigargin] as the molecule, how does the “LD50 (cytotoxic activity)” value [1] read?
A: < 0.1 µM

Q: With “8-O-(12-[L-glutamylamino]-dodecanoyl)-8-O-debutanoylthapsigargin [12ADT-Glu]” as the molecule, how does the “LD50 value for killing” value [2] read?
A: approximately 50 nM

Q: For `C/C=C(/C)C(=O)O[C@H]1C(C)=C2[C@H]([C@@H]1OC(=O)CCCCCCC)[C@@](C)(OC(C)=O)C[C@H](O)[C@@]1(O)[C@H]2OC(=O)[C@@]1(C)O` [8-O-debutanoylthapsigargin], which “LD50 (cytotoxic activity)” value [1] is on record?
A: > 50 µM

Q: Which results are given for `CN(Cc1cnc2nc(N)nc(N)c2n1)c1ccc(C(=O)N[C@@H](CCC(=O)N[C@@H](CCC(=O)N[C@@H](CCC(=O)N[C@@H](CCC(=O)N[C@@H](CCC(=O)O)C(=O)O)C(=O)O)C(=O)O)C(=O)O)C(=O)O)cc1` [APA-Glu*Glu*Glu*Glu*Glu, reference compound]?
A: % PSMA hydrolysis 24 h (PSMA): 96%; % PSMA hydrolysis 48 h (PSMA): 100%; remaining at 18 h [3]: 11%; % APA-Glu or -Asp [3]: 11%; % APA-Glu or -Asp [4]: 68%

Q: Which “% hydrolysis after 24 hours” value (PSMA; Table 2, γ-linked analogs, incubated with PSMA 24 hours) does the source give for `CN(Cc1cnc2nc(N)nc(N)c2n1)c1ccc(C(=O)N[C@@H](CCC(=O)N[C@@H](CCC(=O)N[C@@H](CCC(=O)N[C@@H](CCC(=O)N[C@@H](CC(=O)O)C(=O)O)C(=O)O)C(=O)O)C(=O)O)C(=O)O)cc1` [APA-Glu*Glu*Glu*Glu*Asp] here?
A: 40.9%

Q: What about the “% hydrolysis after 48 hours” value (PSMA; Table 2, γ-linked analogs, incubated with PSMA 48 hours) of the same molecule?
A: 77.7%

Q: And the “% PSMA hydrolysis 24 h” value (PSMA)?
A: 98%

Q: And the “% PSMA hydrolysis 48 h” value (PSMA)?
A: 100%

Q: And the “hydrolysis by PSMA (in words)” value (PSMA)?
A: to a greater extent after 24 hours than any of the γ-linked dipeptide analogs

Q: And the remaining at 18 h [3]?
A: 20%

Q: What about the “% APA-Glu or -Asp” value [3] of the same molecule?
A: 9%

Q: And the “% APA-Glu or -Asp” value [4]?
A: 72%

Q: And the “selectivity, percent inhibition of clonogenic survival with versus without PSMA” value (TSU cancer cell line)?
A: there is selectivity

Q: What does the source list for `CN(Cc1cnc2nc(N)nc(N)c2n1)c1ccc(C(=O)N[C@@H](CCC(=O)N[C@@H](CCC(=O)N[C@@H](CCC(=O)N[C@@H](CCC(=O)N[C@@H](CCC(N)=O)C(=O)O)C(=O)O)C(=O)O)C(=O)O)C(=O)O)cc1` [APA-Glu*Glu*Glu*Glu*Gln]?
A: % PSMA hydrolysis 24 h (PSMA): 97%; % PSMA hydrolysis 48 h (PSMA): 100%; hydrolysis by PSMA (in words) (PSMA): to a greater extent after 24 hours than any of the γ-linked dipeptide analogs; remaining at 18 h [3]: 26%; % APA-Glu or -Asp [3]: 6%; % APA-Glu or -Asp [4]: 62%
